What was measured:
[1] = Inhibition of bovine tubulin polymerization after 20 mins by turbidimetrically
DU-145 = test: Anticancer activity against human DU145 cells after 48 hrs by SRB assay; settings: DU-145, 48 h

| SMILES | IC50 [1] [nM] | GI50 (DU-145) [nM] |
| --- | --- | --- |
| CC/C(=C(\c1ccccc1)c1ccc(OCCN(C)C)cc1)c1ccccc1 [TAMOXIFEN] | > 40000 | – |
| COc1ccc(/C=C\c2cc(OC)c(OC)c(OC)c2)cc1O [COMBRETASTATIN A4] | – | 2 |
